Laboratory results published in US8124780B2, “Benzimidazole compound” (priority 2005, dated 2012).
Where a name gives a salt, the structure may show the parent alone. Read-outs that look alike come from different tables or passages of the source.

System: gastric acid secretion
Assay: animal or person
Assay type: in vivo, dog
Details: Canis lupus familiaris, iv
[1] = 24 h, read-out: Persistency of inhibitory effect against gastric acid secretion (%)
[2] = read-out: Inhibitory effect against gastric acid secretion (%)

Structure (SMILES)	inhibition in vivo at 0.8 mg/kg [1] [%]	inhibition in vivo at 0.8 mg/kg [2] [%]	inhibition in vivo at 1.6 mg/kg [1] [%]	inhibition in vivo at 1.6 mg/kg [2] [%]	inhibition in vivo at 0.4 mg/kg [1] [%]	inhibition in vivo at 0.4 mg/kg [2] [%]
CC1(CCOc2ccnc(C[S+]([O-])c3nc4ccccc4[nH]3)c2)OCC2(CO1)OCCO2 (stereo not shown) [Example 75, 2-(((4-(2-(8-methyl-1,4,7,9-tetraoxaspiro[4.5]dec-8-yl)ethoxy)pyridin-2-yl)methyl)sulfinyl)-1H-benzimidazole sodium salt]	75	85				
Cc1cnc(C[S+]([O-])c2nc3cc(F)ccc3[nH]2)c(C)c1OCC1COC(C)(C)OC1 (stereo not shown) [Example 56, 2-(((4-((2,2-dimethyl-1,3-dioxan-5-yl)methoxy)-3,5-dimethylpyridin-2-yl)methyl)sulfinyl)-5-fluoro-1H-benzimidazole sodium salt]	74	84				
Cc1cnc(C[S+]([O-])c2nc3ccccc3[nH]2)c(C)c1OCC1COC2(CCC2)OC1 (stereo not shown) [Example 13, 2-(((4-(5,9-dioxaspiro[3.5]non-7-ylmethoxy)-3,5-dimethylpyridin-2-yl)methyl)sulfinyl)-1H-benzimidazole sodium salt]	74	100				
[O-][S+](Cc1cc(OCC2COC3(CCC3)OC2)ccn1)c1nc2ccccc2[nH]1 (stereo not shown) [Example 57, 2-(((4-(5,9-dioxaspiro[3.5]non-7-ylmethoxy)pyridin-2-yl)methyl)sulfinyl)-1H-benzimidazole sodium salt]	83	98				
Cc1c(OCC2OCCO2)ccnc1C[S+]([O-])c1nc2ccccc2[nH]1 (stereo not shown) [Example 66, 2-(((4-(1,3-dioxolan-2-ylmethoxy)-3-methylpyridin-2-yl)methyl)sulfinyl)-1H-benzimidazole sodium salt]			79	100		
Cc1c(OCC2COC3(CCCC3)OC2)ccnc1C[S+]([O-])c1nc2ccccc2[nH]1 (stereo not shown) [Example 21, 2-(((4-(6,10-dioxaspiro[4.5]dec-8-ylmethoxy)-3-methylpyridin-2-yl)methyl)sulfinyl)-1H-benzimidazole sodium salt]			94	100		
Cc1c(OCC2COC(CF)(CF)OC2)ccnc1C[S+]([O-])c1nc2ccccc2[nH]1 (stereo not shown) [Example 7, 2-(((4-((2,2-bis(fluoromethyl)-1,3-dioxan-5-yl)methoxy)-3-methylpyridin-2-yl)methyl)sulfinyl)-1H-benzimidazole sodium salt]	90	99				
CCC1(CCOc2ccnc(C[S+]([O-])c3nc4c(C)cccc4[nH]3)c2C)OCCO1 (stereo not shown) [Example 41, 2-(((4-(2-(2-ethyl-1,3-dioxolan-2-yl)ethoxy)-3-methylpyridin-2-yl)methyl)sulfinyl)-4-methyl-1H-benzimidazole sodium salt]			85	100		
Cc1c(OCC2COC3(CCC3)OC2)ccnc1C[S+]([O-])c1nc2ccccc2[nH]1 (stereo not shown) [Example 22, 2-(((4-(5,9-dioxaspiro[3.5]non-7-ylmethoxy)-3-methylpyridin-2-yl)methyl)sulfinyl)-1H-benzimidazole sodium salt]			97	100		
COC1OCC(COc2ccnc(C[S+]([O-])c3nc4ccccc4[nH]3)c2C)CO1 (stereo not shown) [Example 6, 2-(((4-((2-methoxy-1,3-dioxan-5-yl)methoxy)-3-methylpyridin-2-yl)methyl)sulfinyl)-1H-benzimidazole sodium salt]	89	100				
Cc1c(OCC2OCC3(CCC3)CO2)ccnc1C[S+]([O-])c1nc2ccccc2[nH]1 (stereo not shown) [Example 85, 2-(((4-(6,8-dioxaspiro[3.5]non-7-ylmethoxy)-3-methylpyridin-2-yl)methyl)sulfinyl)-1H-benzimidazole sodium salt]	86	100				
[O-][S+](Cc1cc(OCC2COC3(CCOCC3)OC2)ccn1)c1nc2ccccc2[nH]1 (stereo not shown) [Example 60, 2-(((4-(1,5,9-trioxaspiro[5.5]undec-3-ylmethoxy)pyridin-2-yl)methyl)sulfinyl)-1H-benzimidazole sodium salt]	74	89				
Cc1c(OCC2(C)OCC3(CO2)OCCO3)ccnc1C[S+]([O-])c1nc2ccccc2[nH]1 (stereo not shown) [Example 5, 2-(((3-methyl-4-((8-methyl-1,4,7,9-tetraoxaspiro[4.5]dec-8-yl)methoxy)pyridin-2-yl)methyl)sulfinyl)-1H-benzimidazole sodium salt]	89	100			61	54
[O-][S+](Cc1cc(OCC2COC3(CCCC3)OC2)ccn1)c1nc2ccccc2[nH]1 (stereo not shown) [Example 58, 2-(((4-(6,10-dioxaspiro[4.5]dec-8-ylmethoxy)pyridin-2-yl)methyl)sulfinyl)-1H-benzimidazole sodium salt]	77	95				
CCC1(CC)OCC(COc2ccnc(C[S+]([O-])c3nc4ccccc4[nH]3)c2C)O1 (stereo not shown) [Example 65, 2-(((4-((2,2-diethyl-1,3-dioxolan-4-yl)methoxy)-3-methylpyridin-2-yl)methyl)sulfinyl)-1H-benzimidazole sodium salt]			91	100		
CCc1c(OCC2COC(C)(C)O2)ccnc1C[S+]([O-])c1nc2ccccc2[nH]1 (stereo not shown) [Example 51, 2-(((4-((2,2-dimethyl-1,3-dioxolan-4-yl)methoxy)-3-ethylpyridin-2-yl)methyl)sulfinyl)-1H-benzimidazole sodium salt]			83	100		
